{
  "source": "patent US6114537A",
  "about": "“Process for scavenging thiols” (Apotex Inc., priority 1997, dated 2000)",
  "key": {"[1]": {"test_system": "gastric acid secretion, isolated gastric glands", "assay": "In vitro inhibition of gastric acid secretion in isolated mouse gastric glands (14C-aminopyrine accumulation)", "format": "cell-based", "conditions": "100 μM", "description": "Acid secretion is measured indirectly by the accumulation of the weak base ^14 C-aminopyrine in the isolated murine gastric glands of mouse. The assay is performed in polypropylene eppendorf tubes containing 0.5 mL of resuspended mouse gastric glands. In addition, tubes contain the tested drug, acid secretagogues (e.g. histamine, di-butyryl cyclic AMP (cAMP), carbachol) and ^14 C-aminopyrine. Tubes are incubated for 60 min. at 37° C. and continuously rotated. The reaction is stopped by centrifugation of the gland suspension for five min. at 1500 g. Supernatant is aspirated leaving the pellet containing intact gastric glands. The pellet is washed extensively and digested overnight in 1 mL of Protosol (Amersham). After neutralisation with acetic acid and addition of scintillation fluid, the radioactivity is counted in a beta-counter (Beckman). The amount of radioactivity trapped in the pellet corresponds directly with the amount of acid being secreted. Each experimental point is done in triplicate. In each experiment, energy independent consumption was estimated with 0.1 mM of dinitrophenol and basal acid secretion in the absence of acid stimulants. These values were then subtracted from corresponding results in order to calculate basal or secretagogue stimulated acid secretion. […] Each experiment is repeated a number of times and all results are expressed as a % of the maximum stimulation."}, "[2]": {"test_system": "Gastric Acid Secretions", "assay": "Effects on (meal-stimulated) gastric acid secretion in rats", "format": "in vivo, Sprague-Dawley rats", "description": "Effects of compounds of Formula I on Gastric Acid Secretions in Rats\nFasted, adult (140-240 g), male, Sprague-Dawley rats were fasted for 24 h from food, but not water, and then treated by oral gavage with 1 to 1.5 mL total volume of compound of Formula I (300 μmmol/Kg) on different days. Two hours later, rats were anesthetized with a combination of pentobartital and thiopental, the abdomen was opened and the pylorus was ligated, and tracheal, gastric, and peripheral venous canulas were placed. The stomachs were lavaged with 10 mL 0.9% saline every 10 min. for 30 min and the gastric effluent collected in receptacles to determine the basal acid secretion. Acid output was determined in each gastric effluent sample by back-titration to pH 7.0 using 0.02M NaOH. Then, 5 mL of an 8% peptone meal (pH 5.5) was instilled into the stomachs, mixed, and drained after 10 min each time for 2 hours. Acid output was determined in each gastric effluent containing the peptone meal by back-titration to pH 5.5 using 0.02 M NaOH."}, "[3]": {"test_system": "Gastric Acid Secretions", "assay": "Effects on gastric acid secretion in rats, dose-dependent study (histamine-stimulated)", "format": "in vivo, Sprague-Dawley rats", "conditions": "3, 30, 300 μmol/kg doses, oral, anesthetized rats; histamine 5 mg/kg i.v.", "description": "Effects of compounds of Formula I on Gastric Acid Secretions in Rats (Dose-dependent study)\nFasted, adult (140-240 g), male, Sprague-Dawley rats were fasted for 24 h from food, but not water, and then treated by oral gavage with 1 to 1.5 mL total volume of 4 different doses (0.3, 3, 30, and 300 μmol/kg) of each compound on different days. Two hours later, rats were anesthetized with a combination of pentobartital and thiopental, the abdomen was opened and the pylorus was ligated, and tracheal, gastric, and peripheral venous canulas were placed. The stomachs were lavaged with 10 mL 0.9% saline every 10 min. for 30 min and the gastric effluent collected in receptacles. Acid output was determined in each gastric effluent sample by back-titration to pH 7.0 using 0.02M NaOH. Then, 5 mL of an […] meal (pH 5.5) was instilled into the stomachs, mixed, and drained after 10 min each time for 2 hours. Acid output was determined in each gastric effluent sample by back-titration to pH 7.0 using 0.02 M NaOH. After measuring basal acid output for at least 30 minutes, acid output was then measured during a 2 h intravenous infusion of histamine (5 mg/kg)."}, "[4]": {"assay": "Solubility in water", "format": "physicochemical"}, "[5]": {"assay": "Acid stability in 6 molar hydrochloric acid", "format": "physicochemical", "conditions": "room temperature", "description": "Acid stability of 7-methoxy-3-[(4-methoxy-3,5-dimethyl-2-pyridyl)oxomethyl]-1,2,4-thiadiazolo[4,5-a]benzimidazole.\nTo examine acid stability of the captioned compound, the compound was dissolved in a minimum volume of methanol and the resulting solution was added to a 6 molar solution of hydrochloric acid."}, "[6]": {"assay": "Reaction with phenethyl mercaptan (thiol model for the H+/K+-ATPase)", "format": "physicochemical", "conditions": "in methanol", "description": "The reactivity of the compounds in the process of the invention can be illustrated by means of their reaction with phenethyl mercaptan. This is generally illustrated in FIG. 1 of the accompanying drawings, with R of the thiol reagent representing a phenethyl group. In addition, based on prior art (Im et al., J. Biol. Chem., 1985, 260, 4591; Sturm et al., J. Org. Chem., 1987, 52, 4573; Lorentzon et al., Biochim., Biophys. Acta, 1985, 817, 25), phenethylmercaptan is useful as a model for the H^+ /K^+ -ATPase to examine the reactivity of compounds towards thiol group(s) of the enzyme. […] The compound of formula XI reacts with an additional mole of phenethyl mercaptan to produce a compound of formula XII which decomposes to give compounds of formula XIII and XIV.\nA minimum of two moles of phenethyl mercaptan for 1 mole of substrate is required to effect the ring opening of 1,2,4-thiadiazolo[4,5-a]benzimidazoles to give the compound of formula XII. In general, the ring opening reaction is slow with two moles of phenethyl mercaptan. The reaction rate increases rapidly when a large excess of phenethyl mercaptan (for example, 25 fold) is used. […] This degradation of the trapped thiol intermediate to form the disulfide has also been observed in the chemical model for the H^+ /K^+ -ATPase (Lindberg et al., J. Med. Chem., 1986, 29, 1329). […]"}},
  "data": [
    {"smiles": "CN1CCN(c2nsc3nc4ccccc4n23)CC1.Cl.Cl", "note": "[3-(4-methyl-1-piperazinyl)-1,2,4-thiadiazolo [4,5-a]benzimidazole dihydrochloride]", "values": [
      {"measurement": "inhibition of cAMP stimulated acid secretion", "setting": "[1]; cAMP stimulated", "result": "completely inhibited"},
      {"measurement": "inhibition of histamine stimulated acid secretion", "setting": "[1]; histamine stimulated", "result": "completely inhibited"}
    ]},
    {"smiles": "COc1ccc2c(c1)nc1snc(C(=O)c3ncc(C)c(OC)c3C)n12", "note": "[7-methoxy-3-[(4-methoxy-3,5-dimethyl-2-pyridyl)oxomethyl]-1,2,4-thiadiazolo[4,5-a]benzimidazole]", "values": [
      {"measurement": "inhibition of meal-stimulated acid secretion", "setting": "[2]; 300 μmmol/Kg, rats, oral", "result": "significant (p<0.05) inhibition"},
      {"measurement": "level of acid output, peptone stimulated", "setting": "[2]; after 1 h, oral gavage, rats, 300 μmmol/Kg, vehicle 160 numol/30 min", "result": 20, "unit": "μmmol/30 min"},
      {"measurement": "suppression of gastric acid secretion in animal model", "setting": "[2]; animal model", "result": "active in the suppression of gastric acid secretion"},
      {"measurement": "inhibition of histamine-stimulated acid secretion", "setting": "[3]", "result": "significant (p<0.05) inhibition"},
      {"measurement": "solubility in water", "setting": "[4]", "result": "limited solubility in water"},
      {"measurement": "recovery after stirring in acid", "setting": "[5]; 48 hours", "result": "totally recovered"},
      {"measurement": "acid stability", "setting": "[5]", "result": "very stable in acid"}
    ]},
    {"smiles": "CN(C)c1nsc2nc3ccccc3n12", "note": "[Me2 N, 3-(dimethylamino)-1,2,4-thiadiazolo[4,5-a]benzimidazole]", "values": [
      {"measurement": "time to complete reaction with phenethyl mercaptan", "setting": "[6]", "result": "≤ 1", "unit": "min"}
    ]},
    {"smiles": "COc1nsc2nc3ccccc3n12", "note": "[MeO, 3-methoxy-1,2,4-thiadiazolo[4,5-a]benzimidazole]", "values": [
      {"measurement": "time to complete reaction with phenethyl mercaptan", "setting": "[6]", "result": "≤ 1", "unit": "min"}
    ]}
  ]
}
